Laboratory results taken from US20240246935A1 (Plexium, Inc., priority 2021, published 2024).

Target: GSPT1 (Homo sapiens (Human), UniProt P15170+Q96SW2)
Test: GSPT1 reporter degradation assay (HEK293 hGSPT1 HiBiT-tagged cells)
Type: cell-based
Details: 24 hour incubation
Procedure: HEK293_hGSPT1_HiBiT-tagged cells were generated using CRISPR-Cas12a technology. Briefly, ˜400,000 HEK293 cells were transiently co-transfected with precomplexed ribonuclear proteins (RNPs) consisting of 80 pmol of crRNA (IDT), 62 pmol of Cas12a protein (IDT), 3 μg of ssODN donor (IDT; AltR® modifications), 78 pmol of electroporation enhancer (IDT), and 200 ng of pMaxGFP (Lonza). The transfection was performed via nucleofection (Lonza, 4D-Nucleofector X-unit) using solution P3 and program CM-130 in a (20 μL) cuvette. Five days post-nucleofection, cells were single-cell-sorted for GFP+(transfected) cells by FACs in 96-well plates and clonally selected. Clones were screened and verified for the desired modification via targeted deep sequencing using gene-specific primers with partial Illumina adapter overhangs as previously described. In brief, clonal cell pellets were harvested, lysed, and used to generate gene-specific amplicons with partial Illumina adapters in PCR #1. Amplicons were indexed in PCR #2 and pooled with other targeted amplicons for other loci to create sequence diversity. Additionally, 10% PhiX sequencing control V3 (Illumina) was added to the pooled amplicon library prior to running the sample on a Miseq Sequencer System (Illumina) to generate paired 2×250 bp reads. Samples were demultiplexed using the index sequences, fastq files were generated, and NGS analysis was performed using CRIS.py. Final clones were authenticated using the PowerPlex fusion system (Promega) and tested negative for mycoplasma by the MycoAlert™Plus mycoplasma detection kit (Lonza).
Editing construct sequences and screening primers are outlined below (sequence from 5′ to 3′). hGSPT1Cas12acrRNA, CAGE635.GSPT1.g1: […] (SEQ ID NO: 4); CAGE635.g1.anti.ssODN: ttcctcacagtattgtgcagggtcatcaagaaaatgctta[…] CAGCCGCTCACgtcCttctctggaaccagtttcagaacttttccaattgcaatggtcttacctagaaatgaaattttaa (HiBiT tag and silent blocking modifications to prevent Cas12a recutting after integration are in upper case) (SEQ ID NO: 5); CAGE635.hGSPT1.DS.F: […] (SEQ ID NO: 6); CAGE635.hGSPT1.DS.R: GTGAA GTAGGCTTCTGCAGTC (SEQ ID NO: 7).
The GSPT1 degradation assay was carried out by harvesting the HEK 293T reporter cell lines and resuspending the cells in media formulated for reduced background fluorescence (FluoroBrite; Thermo Fisher). The respective cell lines were seeded at a density of 8,000 cells/well into white-opaque 384-well optical grade assay tissue culture plates (Greiner 781080-20). The cells were incubated overnight at 37° C. to allow for attachment to the assay plate. Dilutions of the compounds were prepared in DMSO from 10 mM compound stocks. Test compounds were added in a 10-point dilution series (typically 10 μM to […]) using a TECAN D300e Digital Dispenser with an upper limit of 0.5% final DMSO. Plates were centrifuged at 320×g for 2 minutes at room temperature, and subsequently incubated at 37° C.
After 24 hour incubation with the compounds, the plates were allowed to cool to room temperature for 10 minutes. 30 μL of HiBiT lytic buffer+1:50 HiBiT substrate Solution were added to each well. Plates were centrifuged at 320×g for 2 minutes at room temperature and then incubated with shaking at room temperature for 10 minutes covered with foil. Plates were read on a CLARIOstar microplate reader (BMG LabTech), measuring at 450 nm (donor emission) and 610 nm or 630 nm (acceptor emission). The DC50 values were determined by regression to best fit four-parameter logistic curves using GraphPad Prism.

GSPT1, sequence (P15170 whole entry): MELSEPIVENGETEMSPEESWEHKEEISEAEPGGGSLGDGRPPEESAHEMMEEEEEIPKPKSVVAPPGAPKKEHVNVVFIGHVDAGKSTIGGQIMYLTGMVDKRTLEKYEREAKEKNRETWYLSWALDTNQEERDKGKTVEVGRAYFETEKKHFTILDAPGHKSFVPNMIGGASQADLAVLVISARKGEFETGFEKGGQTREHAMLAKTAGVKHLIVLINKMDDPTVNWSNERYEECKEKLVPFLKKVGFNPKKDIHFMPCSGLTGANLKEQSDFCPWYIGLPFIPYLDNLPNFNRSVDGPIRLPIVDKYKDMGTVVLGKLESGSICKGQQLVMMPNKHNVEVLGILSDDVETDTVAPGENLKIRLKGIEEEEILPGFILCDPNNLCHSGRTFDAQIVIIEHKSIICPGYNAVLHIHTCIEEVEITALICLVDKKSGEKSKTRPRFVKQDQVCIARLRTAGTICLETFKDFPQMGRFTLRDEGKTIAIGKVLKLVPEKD
GSPT1, sequence (Q96SW2 whole entry): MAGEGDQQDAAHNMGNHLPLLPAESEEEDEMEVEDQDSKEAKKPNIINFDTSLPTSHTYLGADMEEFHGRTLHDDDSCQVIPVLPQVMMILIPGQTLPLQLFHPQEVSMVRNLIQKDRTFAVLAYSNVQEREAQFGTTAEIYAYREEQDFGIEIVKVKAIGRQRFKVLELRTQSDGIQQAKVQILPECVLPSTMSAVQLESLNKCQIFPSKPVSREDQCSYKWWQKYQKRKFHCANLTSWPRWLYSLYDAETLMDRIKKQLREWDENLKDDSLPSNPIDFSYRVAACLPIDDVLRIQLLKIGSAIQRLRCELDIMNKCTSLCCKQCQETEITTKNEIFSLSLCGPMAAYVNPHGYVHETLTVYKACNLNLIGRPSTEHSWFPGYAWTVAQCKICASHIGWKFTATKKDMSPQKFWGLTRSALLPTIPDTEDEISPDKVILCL
GSPT1, sequence (Q16531 whole entry partner): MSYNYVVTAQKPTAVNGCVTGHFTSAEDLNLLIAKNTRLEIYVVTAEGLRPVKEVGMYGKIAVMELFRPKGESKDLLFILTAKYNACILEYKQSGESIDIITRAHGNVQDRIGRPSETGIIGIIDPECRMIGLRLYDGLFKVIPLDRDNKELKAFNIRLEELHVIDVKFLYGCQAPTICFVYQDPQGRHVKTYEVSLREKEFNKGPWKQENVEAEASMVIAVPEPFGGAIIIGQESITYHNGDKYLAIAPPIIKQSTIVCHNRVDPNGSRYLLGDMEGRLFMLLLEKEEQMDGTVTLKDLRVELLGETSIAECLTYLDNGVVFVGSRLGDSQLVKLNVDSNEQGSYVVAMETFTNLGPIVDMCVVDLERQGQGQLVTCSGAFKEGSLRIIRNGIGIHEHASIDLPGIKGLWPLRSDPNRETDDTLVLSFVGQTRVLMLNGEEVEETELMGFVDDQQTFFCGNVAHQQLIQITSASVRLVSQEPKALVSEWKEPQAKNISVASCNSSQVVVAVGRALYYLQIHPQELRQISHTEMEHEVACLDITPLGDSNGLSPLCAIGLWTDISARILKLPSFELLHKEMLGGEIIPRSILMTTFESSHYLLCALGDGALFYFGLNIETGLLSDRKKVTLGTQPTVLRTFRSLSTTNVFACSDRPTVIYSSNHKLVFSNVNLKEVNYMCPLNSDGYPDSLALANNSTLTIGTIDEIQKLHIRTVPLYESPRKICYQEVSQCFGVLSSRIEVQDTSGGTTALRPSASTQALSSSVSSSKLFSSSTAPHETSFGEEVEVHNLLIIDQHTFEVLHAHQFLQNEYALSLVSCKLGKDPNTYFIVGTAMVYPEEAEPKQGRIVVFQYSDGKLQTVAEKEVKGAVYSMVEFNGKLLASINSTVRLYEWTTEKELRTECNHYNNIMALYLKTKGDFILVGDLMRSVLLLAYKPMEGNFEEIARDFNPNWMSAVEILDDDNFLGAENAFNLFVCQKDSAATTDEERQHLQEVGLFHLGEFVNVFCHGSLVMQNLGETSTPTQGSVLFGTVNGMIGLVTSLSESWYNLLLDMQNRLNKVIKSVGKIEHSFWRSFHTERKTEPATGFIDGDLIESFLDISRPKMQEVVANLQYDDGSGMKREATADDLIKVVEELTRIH

SMILES	DC50 [µM]
O=C1CCC(N2Cc3cc(O[C@H]4CCCC[C@@H]4N4CC(c5cccc(OC(F)(F)F)c5)C4)ccc3C2=O)C(=O)N1 (stereo partly drawn) [Compound 35, 3-(1-oxo-5-(((1S,2S)-2-(3-(3-(trifluoromethoxy)phenyl)azetidin-1-yl)cyclohexyl)oxy)isoindolin-2-yl)piperidine-2,6-dione]	> 30
O=C1CCC(N2Cc3cc(O[C@H]4CCCC[C@@H]4N4CC(c5cccc(F)c5)C4)ccc3C2=O)C(=O)N1 (stereo partly drawn) [Compound 111, 3-(5-(((1S,2S)-2-(3-(3-fluorophenyl)azetidin-1-yl)cyclohexyl)oxy)-1-oxoisoindolin-2-yl)piperidine-2,6-dione]	> 30
O=C1CCC(N2Cc3cc(O[C@H]4CCCC[C@@H]4N4CC(c5ccccc5OC(F)(F)F)C4)ccc3C2=O)C(=O)N1 (stereo partly drawn) [Compound 36, 3-(1-oxo-5-(((1S,2S)-2-(3-(2-(trifluoromethoxy)phenyl)azetidin-1-yl)cyclohexyl)oxy)isoindolin-2-yl)piperidine-2,6-dione]	> 30
O=C1CCC(N2Cc3cc(O[C@H]4CCCC[C@@H]4N4CC(c5ccc(O)cc5)C4)ccc3C2=O)C(=O)N1 (stereo partly drawn) [Compound 132, 3-(5-(((1S,2S)-2-(3-(4-hydroxyphenyl)azetidin-1-yl)cyclohexyl)oxy)-1-oxoisoindolin-2-yl)piperidine-2,6-dione]	> 30
O=C1CCC(N2Cc3cc(O[C@H]4CCCC[C@@H]4N4CC(c5ccccc5C(F)(F)F)C4)ccc3C2=O)C(=O)N1 (stereo partly drawn) [Compound 129, 3-(1-oxo-5-(((1S,2S)-2-(3-(2-(trifluoromethyl)phenyl)azetidin-1-yl)cyclohexyl)oxy)isoindolin-2-yl)piperidine-2,6-dione]	> 30
O=C1CCC(N2Cc3cc(O[C@H]4CCCC[C@@H]4N4CC(c5ccccc5)C4)c(F)cc3C2=O)C(=O)N1 (single isomer, unassigned) [Compound 52]	> 30
O=C1CC[C@@H](N2Cc3cc(O[C@H]4CCCC[C@@H]4N4CC(c5ccccc5)C4)ccc3C2=O)C(=O)N1 [Compound 125, (R)-3-(1-oxo-5-(((1S,2S)-2-(3-phenylazetidin-1-yl)cyclohexyl)oxy)isoindolin-2-yl)piperidine-2,6-dione]	> 30
O=C(O)CC(O)(CC(=O)O)C(=O)O.O=C1CCC(N2Cc3cc(O[C@H]4CCCC[C@@H]4N4CC(c5ccccc5)C4)ccc3C2=O)C(=O)N1 (stereo partly drawn) [Compound 130, 3-(1-oxo-5-(((1S,2S)-2-(3-phenylazetidin-1-yl)cyclohexyl)oxy)isoindolin-2-yl)piperidine-2,6-dione 2-hydroxypropane-1,2,3-tricarboxylate]	> 30
O=C1CCC(N2Cc3cc(O[C@H]4CCCC[C@@H]4N4CC(c5ccc(F)cc5)C4)ccc3C2=O)C(=O)N1 (single isomer, unassigned) [Compound 50]	> 30
O=C1CCC(N2Cc3cc(O[C@H]4CCCC[C@@H]4N4CC(c5cccc(F)c5F)C4)ccc3C2=O)C(=O)N1 (stereo partly drawn) [Compound 64, 3-(5-(((1S,2S)-2-(3-(2,3-difluorophenyl)azetidin-1-yl)cyclohexyl)oxy)-1-oxoisoindolin-2-yl)piperidine-2,6-dione]	> 30
O=C1CCC(N2Cc3cc(O[C@H]4CCCC[C@@H]4N4CC(c5ccc(N6CCOCC6)cc5)C4)ccc3C2=O)C(=O)N1 (stereo partly drawn) [Compound 124, 3-(5-(((1S,2S)-2-(3-(4-morpholinophenyl)azetidin-1-yl)cyclohexyl)oxy)-1-oxoisoindolin-2-yl)piperidine-2,6-dione]	> 30
O=C1CCC(N2Cc3cc(O[C@H]4CCCCC[C@@H]4N4CC(c5ccccc5)C4)ccc3C2=O)C(=O)N1 (stereo partly drawn) [Compound 131, 3-(1-oxo-5-(((1S,2S)-2-(3-phenylazetidin-1-yl)cycloheptyl)oxy)isoindolin-2-yl)piperidine-2,6-dione]	> 30
N#Cc1cc(Cl)ccc1C1CN([C@@H]2CCCC[C@@H]2Oc2ccc3c(c2)CN(C2CCC(=O)NC2=O)C3=O)C1 (mixture of isomers) [Compound 100, Rac-5-chloro-2-(1-((cis)-2-((2-(2,6-dioxopiperidin-3-yl)-1-oxoisoindolin-5-yl)oxy)cyclohexyl)azetidin-3-yl)benzonitrile]	> 30
O=C1CCC(N2Cc3cc(O[C@H]4CCCC[C@@H]4N4CC(c5cccc(O)c5)C4)ccc3C2=O)C(=O)N1 (stereo partly drawn) [Compound 134, 3-(5-(((1S,2S)-2-(3-(3-hydroxyphenyl)azetidin-1-yl)cyclohexyl)oxy)-1-oxoisoindolin-2-yl)piperidine-2,6-dione]	> 30
O=C1CCC(N2Cc3c(ccc(O[C@H]4CCCC[C@@H]4N4CC(c5ccccc5)C4)c3F)C2=O)C(=O)N1 (single isomer, unassigned) [Compound 66]	> 30
O=C1CCC(N2Cc3c(ccc(O[C@H]4CCCC[C@@H]4N4CC(c5ccccc5)C4)c3F)C2=O)C(=O)N1 (single isomer, unassigned) [Compound 65]	> 30
O=C1CCC(N2Cc3cc(O[C@H]4CCCC[C@@H]4N4CC(c5ccccc5O)C4)ccc3C2=O)C(=O)N1 (stereo partly drawn) [Compound 133, 3-(5-(((1S,2S)-2-(3-(2-hydroxyphenyl)azetidin-1-yl)cyclohexyl)oxy)-1-oxoisoindolin-2-1)piperidine-2,6-dione]	> 30
